Source: US20230159453A1 (COCRYSTAL PHARMA, INC., priority 2020, published 2023)

Each molecule was assayed against SARS2 protease (Severe acute respiratory syndrome coronavirus 2, UniProt P0DTD1) (assay: SARS-CoV-2 protease inhibition assay (SARS2 FRET protease assay)). Conditions: SARS-CoV-2 protease 25 nM, FRET, peptide substrate 1.3 μM, 30 minutes at 30° C., compounds 20 μM to 1.0 nM; read-out: IC50.
Format: biochemical

Going from CC(=O)N1CCC2(CC1)CC(CC(C=O)NC(=O)[C@H](CC(C)C)NC(=O)OCC1CCC(F)(F)CC1)C(=O)N2 (stereo partly drawn) [Compound C64, (4,4-Difluorocyclohexyl)methyl ((2S)-1-((1-(8-acetyl-2-oxo-1,8-diazaspiro[4.5]decan-3-yl)-3-oxopropan-2-yl)amino)-4-methyl-1-oxopentan-2-yl)carbamate] to CCOP(=O)(OCC)C(O)C(CC1CC2(CCN(C(C)=O)CC2)NC1=O)NC(=O)[C@H](CC(C)C)NC(=O)OCC1CCC(F)(F)CC1 (stereo partly drawn) [Compound C95, (4,4-Difluorocyclohexyl)methyl ((2S)-1-((3-(8-acetyl-2-oxo-1,8-diazaspiro[4.5]decan-3-yl)-1-(diethoxyphosphoryl)-1-hydroxypropan-2-yl)amino)-4-methyl-1-oxopentan-2-yl)carbamate], the IC50 rises from 100 nM to 7000 nM (70-fold).

Compared with CCCCCOC(=O)N[C@@H](CC(C)C)C(=O)NC(C)(C=O)CC1CCNC1=O (stereo partly drawn) [Compound C65, Pentyl ((2S)-4-methyl-1-((2-methyl-1-oxo-3-(2-oxopyrrolidin-3-yl)propan-2-yl)amino)-1-oxopentan-2-yl) carbamate], CC(C)C[C@H](NC(=O)OCC(C)(C)c1cccc(Cl)c1)C(=O)NC(C)(C=O)CC1CCNC1=O (stereo partly drawn) [Compound C83, 2-(3-Chlorophenyl)-2-methylpropyl ((2S)-4-methyl-1-((2-methyl-1-oxo-3-(2-oxopyrrolidin-3-yl)propan-2-yl)amino)-1-oxopentan-2-yl) carbamate] is 21-fold lower in IC50: 26900 nM for the first, 1300 nM for the second. The second is the more potent here.

CC(C)C[C@H](NC(=O)OCc1cccc(Cl)c1)C(=O)NC(C=O)CC1CC2(CCCCC2)NC1=O (stereo partly drawn) [Compound C66, 3-Chlorobenzyl ((2S)-4-methyl-1-oxo-1-((1-oxo-3-(2-oxo-1-azaspiro[4.5]decan-3-yl)propan-2-yl)amino)pentan-2-yl)carbamate] and CC(=O)N1CCC2(CC1)CC(CC(C=O)NC(=O)[C@H](CC(C)C)NC(=O)OCC(C)(C)c1cccc(Cl)c1)C(=O)N2 (stereo partly drawn) [Compound C70, 2-(3-Chlorophenyl)-2-methylpropyl ((2S)-1-((1-(8-acetyl-2-oxo-1,8-diazaspiro[4.5]decan-3-yl)-3-oxopropan-2-yl)amino)-4-methyl-1-oxopentan-2-yl)carbamate] are the same in IC50: 100 nM for the first, 100 nM for the second.

Compared with CC(=O)N1CCC2(CC1)CC(CC(C=O)NC(=O)[C@H](Cc1cccc(F)c1)NC(=O)OCc1cccc(Cl)c1)C(=O)N2 (stereo partly drawn) [Compound C67, 3-Chlorobenzyl ((2S)-1-((1-(8-acetyl-2-oxo-1,8-diazaspiro[4.5]decan-3-yl)-3-oxopropan-2-yl)amino)-3-(3-fluorophenyl)-1-oxopropan-2-yl)carbamate], CCOP(=O)(OCC)C(O)C(CC1CC2(CCN(C(C)=O)CC2)NC1=O)NC(=O)[C@H](Cc1cccc(F)c1)NC(=O)OCc1cccc(Cl)c1 (stereo partly drawn) [Compound C82, 3-Chlorobenzyl ((2S)-1-((3-(8-acetyl-2-oxo-1,8-diazaspiro[4.5]decan-3-yl)-1-(diethoxyphosphoryl)-1-hydroxypropan-2-yl)amino)-3-(3-fluorophenyl)-1-oxopropan-2-yl)carbamate] is 15-fold higher in IC50: 300 nM for the first, 4400 nM for the second.

Going from CC(C)C[C@H](NC(=O)OC(Cc1ccccc1)c1ccccc1)C(=O)N[C@@H](C[C@@H]1CCNC1=O)C(=O)C(=O)NCc1ccccn1 (stereo partly drawn) [Compound C68, 1,2-Diphenylethyl ((S)-1-(((S)-3,4-dioxo-1-((S)-2-oxopyrrolidin-3-yl)-4-((pyridin-2-ylmethyl)amino)butan-2-yl)amino)-4-methyl-1-oxopentan-2-yl)carbamate] to CC(C)C[C@H](NC(=O)OC1CCN(C(=O)OC(C)(C)C)c2ccccc21)C(=O)N[C@@H](C[C@@H]1CCNC1=O)C(=O)C(=O)NCc1ccccn1 (stereo partly drawn) [Compound C86, Tert-butyl 4-((((S)-1-(((S)-3,4-dioxo-1-((S)-2-oxopyrrolidin-3-yl)-4-((pyridin-2-ylmethyl)amino)butan-2-yl)amino)-4-methyl-1-oxopentan-2-yl)carbamoyl)oxy)-3,4-dihydroquinoline-1(2H)-carboxylate], the IC50 falls from 2100 nM to 900 nM (2.3-fold).

CC(C)C[C@H](NC(=O)OC1(Cc2cccnc2)CC1)C(=O)N[C@H](C=O)C[C@@H]1CCNC1=O [Compound C71, 1-(Pyridin-3-ylmethyl)cyclopropyl ((S)-4-methyl-1-oxo-1-(((S)-1-oxo-3-((S)-2-oxopyrrolidin-3-yl)propan-2-yl)amino)pentan-2-yl)carbamate] and CC(C)C[C@H](NC(=O)OC1(Cc2cccc(Cl)c2)CC1)C(=O)N[C@@H](C[C@@H]1CCNC1=O)C(=O)C(N)=O [Compound C88, 1-(3-Chlorobenzyl) cyclopropyl ((S)-1-(((S)-4-amino-3,4-dioxo-1-((S)-2-oxopyrrolidin-3-yl)butan-2-yl)amino)-4-methyl-1-oxopentan-2-yl)carbamate] are within 1.5-fold of each other in IC50: 1600 nM for the first, 1300 nM for the second.

First: CC(C)C[C@H](NC(=O)OCC(C)(C)c1cccc(Cl)c1)C(=O)N[C@@H](C[C@@H]1CCNC1=O)C(O)S(=O)(=O)O (stereo partly drawn) [Compound C72, Sodium (2S)-2-((S)-2-(((2-(3-chlorophenyl)-2-methylpropoxy)carbonyl)amino)-4-methylpentanamido)-1-hydroxy-3-((S)-2-oxopyrrolidin-3-yl)propane-1-sulfonate]
Second: CC(C)C[C@H](NC(=O)OCC(C)(C)c1cccc(Cl)c1)C(=O)N[C@@H](C[C@@H]1CCNC1=O)C(=O)C(N)=O [Compound C90, 2-(3-chlorophenyl)-2-methylpropyl ((S)-1-(((S)-4-amino-3,4-dioxo-1-((S)-2-oxopyrrolidin-3-yl)butan-2-yl)amino)-4-methyl-1-oxopentan-2-yl)carbamate]
The IC50 of the first is 10-fold lower: 10 nM for the first, 100 nM for the second.

Going from CC(C)C[C@H](NC(=O)OC1(Cc2ccccc2)CCC1)C(=O)N[C@@H](C[C@@H]1CCNC1=O)C(=O)C(N)=O [Compound C73, 1-Benzylcyclobutyl ((S)-1-(((S)-4-amino-3,4-dioxo-1-((S)-2-oxopyrrolidin-3-yl)butan-2-yl)amino)-4-methyl-1-oxopentan-2-yl)carbamate] to COc1cccc(CC2(OC(=O)N[C@@H](CC(C)C)C(=O)N[C@@H](C[C@@H]3CCNC3=O)C(=O)C(N)=O)CC2)c1 [Compound C93, 1-(3-Methoxybenzyl) cyclopropyl ((S)-1-(((S)-4-amino-3,4-dioxo-1-((S)-2-oxopyrrolidin-3-yl)butan-2-yl)amino)-4-methyl-1-oxopentan-2-yl) carbamate], the IC50 rises from 600 nM to greater than 20000 nM. The first is the more potent here.

First: CC(=O)N1CCC2(CC1)CC(CC(C=O)NC(=O)[C@H](CC(C)C)NC(=O)c1cc3ccccc3[nH]1)C(=O)N2 (stereo partly drawn) [Compound C74, N-((2S)-1-((1-(8-acetyl-2-oxo-1,8-diazaspiro[4.5]decan-3-yl)-3-oxopropan-2-yl)amino)-4-methyl-1-oxopentan-2-yl)-1H-indole-2-carboxamide]
Second: CC(=O)N1CCC2(CC1)CC(CC(C=O)NC(=O)[C@H](CC1CCCCC1)NC(=O)c1cc3ccccc3[nH]1)C(=O)N2 (stereo partly drawn) [Compound C75, N-((2S)-1-((1-(8-acetyl-2-oxo-1,8-diazaspiro[4.5]decan-3-yl)-3-oxopropan-2-yl)amino)-3-cyclohexyl-1-oxopropan-2-yl)-1H-indole-2-carboxamide]
The IC50 of the first is 120-fold higher: 140 nM for the first, 1.2 nM for the second.

First: CC(C)C[C@H](NC(=O)OC1(Cc2cccc(OCc3ccccc3)c2)CC1)C(=O)N[C@@H](CC1CCNC1=O)C(O)S(=O)(=O)O (stereo partly drawn) [Compound C76, Sodium (2S)-2-((S)-2-(((1-(3-(benzyloxy)benzyl)cyclopropoxy)carbonyl)amino)-4-methylpentanamido)-1-hydroxy-3-((S)-2-oxopyrrolidin-3-yl)propane-1-sulfonate]
Second: CC(C)C[C@H](NC(=O)OC(C)(C)Cc1ccccc1)C(=O)N[C@@H](C[C@@H]1CCNC1=O)C(=O)C(N)=O [Compound C79]
The IC50 of the first is 10-fold lower: 380 nM for the first, 3800 nM for the second.

First: CCCC1CCC(OC(=O)N[C@@H](CC(C)C)C(=O)NC(C=O)CC2CC3(CCN(C(C)=O)CC3)NC2=O)CC1 (stereo partly drawn) [Compound C77, 4-Propylcyclohexyl ((2S)-1-((1-(8-acetyl-2-oxo-1,8-diazaspiro[4.5]decan-3-yl)-3-oxopropan-2-yl)amino)-4-methyl-1-oxopentan-2-yl)carbamate]
Second: CCOP(=O)(OCC)C(O)C(CC1CC2(CCN(C(C)=O)CC2)NC1=O)NC(=O)[C@H](CC(C)C)NC(=O)OCC(C)(C)c1cccc(Cl)c1 (stereo partly drawn) [Compound C84, 2-(3-Chlorophenyl)-2-methylpropyl ((2S)-1-((3-(8-acetyl-2-oxo-1,8-diazaspiro[4.5]decan-3-yl)-1-(diethoxyphosphoryl)-1-hydroxypropan-2-yl)amino)-4-methyl-1-oxopentan-2-yl)carbamate]
The IC50 of the first is 15-fold lower: 600 nM for the first, 9200 nM for the second. The first is the more potent here.

First: CCOP(=O)(OCC)C(O)C(CC1CC2(CCN(C(C)=O)CC2)NC1=O)NC(=O)[C@H](CC1CCCCC1)NC(=O)c1cc2ccccc2[nH]1 (stereo partly drawn) [Compound C81, Diethyl (3-(8-acetyl-2-oxo-1,8-diazaspiro[4.5]decan-3-yl)-2-((S)-3-cyclohexyl-2-(1H-indole-2-carboxamido)propanamido)-1-hydroxypropyl)phosphonate]
Second: CCOP(=O)(OCC)C(O)C(CC1CC2(CCN(C(C)=O)CC2)NC1=O)NC(=O)[C@H](CC(C)C)NC(=O)c1cc2ccccc2[nH]1 (stereo partly drawn) [Compound C94, Diethyl (2-((S)-2-(1H-indole-2-carboxamido)-4-methylpentanamido)-3-(8-acetyl-2-oxo-1,8-diazaspiro[4.5]decan-3-yl)-1-hydroxypropyl)phosphonate]
The IC50 of the first is 13-fold lower: 200 nM for the first, 2600 nM for the second.

First: CC(C)C[C@H](NC(=O)OCC(C)(C)c1cccc(Cl)c1)C(=O)N[C@@H](C[C@@H]1CCNC1=O)C(=O)C(=O)NC1CC1 [Compound C87, 2-(3-Chlorophenyl)-2-methylpropyl ((S)-1-(((S)-4-(cyclopropylamino)-3,4-dioxo-1-((S)-2-oxopyrrolidin-3-yl)butan-2-yl)amino)-4-methyl-1-oxopentan-2-yl)carbamate]
Second: CC(C)C[C@H](NC(=O)N(Cc1ccccc1)C1CCN(C(=O)OC(C)(C)C)CC1)C(=O)N[C@@H](C[C@@H]1CCNC1=O)C(=O)C(=O)NC1CC1 [Compound C98, Tert-butyl 4-(1-benzyl-3-((S)-1-(((S)-4-(cyclopropylamino)-3,4-dioxo-1-((S)-2-oxopyrrolidin-3-yl)butan-2-yl)amino)-4-methyl-1-oxopentan-2-yl)ureido)piperidine-1-carboxylate]
The IC50 of the first is 3.1-fold lower: 700 nM for the first, 2200 nM for the second. The first is the more potent here.
